ChEMBL document CHEMBL1777706, “Discovery of selective and orally available spiro-3-piperidyl ATP-competitive MK2 inhibitors” (Bioorg Med Chem Lett, 2011)
Activity calls are given as the source filed them. The rule behind the calls is not given here.

Target: Mitogen-activated protein kinase 1 (Homo sapiens) (UniProt P28482)
Assay: Inhibition of ERK2 at 1 uM

Chain of Mitogen-activated protein kinase 1 (Homo sapiens) (P28482 whole entry, looked up): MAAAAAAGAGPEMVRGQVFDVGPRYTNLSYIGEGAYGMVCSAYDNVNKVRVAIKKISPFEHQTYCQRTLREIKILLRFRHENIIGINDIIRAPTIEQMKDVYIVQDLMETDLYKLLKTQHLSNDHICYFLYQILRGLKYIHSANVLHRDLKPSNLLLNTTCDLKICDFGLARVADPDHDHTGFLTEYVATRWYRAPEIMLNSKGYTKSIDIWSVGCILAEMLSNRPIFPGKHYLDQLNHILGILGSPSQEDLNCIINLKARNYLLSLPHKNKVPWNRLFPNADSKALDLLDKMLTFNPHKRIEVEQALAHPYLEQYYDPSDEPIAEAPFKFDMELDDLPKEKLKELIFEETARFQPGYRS

SMILES | inhibition
O=C1NC[C@@]2(CCCNC2)c2[nH]c(-c3ccnc(-c4cccnc4)n3)cc21 | > 80%
O=C1NCC2(CCNCC2)c2[nH]c(-c3ccnc(-c4ccc5ccccc5c4)n3)cc21 | > 80%
O=C1NCC2(CCNCC2)c2[nH]c(-c3ccnc(-c4ccc(C(F)(F)F)cc4)n3)cc21 | > 80%
COCCCOc1ccc(-c2nccc(-c3cc4c([nH]3)[C@]3(CCCNC3)CNC4=O)n2)cn1 | > 80%

Other lines, results leading:

inhibition | SMILES
> 80% | COc1cncc(-c2nccc(-c3cc4c([nH]3)C3(CCNCC3)CNC4=O)n2)c1
> 80% | CC(C)c1cccc(-c2nccc(-c3cc4c([nH]3)C3(CCNCC3)CNC4=O)n2)c1

Target: Serine/threonine-protein kinase Chk2 (Homo sapiens) (UniProt O96017)
Assay: Inhibition of CHK2 at 1 uM

Chain of Serine/threonine-protein kinase Chk2 (Homo sapiens) (O96017 whole entry): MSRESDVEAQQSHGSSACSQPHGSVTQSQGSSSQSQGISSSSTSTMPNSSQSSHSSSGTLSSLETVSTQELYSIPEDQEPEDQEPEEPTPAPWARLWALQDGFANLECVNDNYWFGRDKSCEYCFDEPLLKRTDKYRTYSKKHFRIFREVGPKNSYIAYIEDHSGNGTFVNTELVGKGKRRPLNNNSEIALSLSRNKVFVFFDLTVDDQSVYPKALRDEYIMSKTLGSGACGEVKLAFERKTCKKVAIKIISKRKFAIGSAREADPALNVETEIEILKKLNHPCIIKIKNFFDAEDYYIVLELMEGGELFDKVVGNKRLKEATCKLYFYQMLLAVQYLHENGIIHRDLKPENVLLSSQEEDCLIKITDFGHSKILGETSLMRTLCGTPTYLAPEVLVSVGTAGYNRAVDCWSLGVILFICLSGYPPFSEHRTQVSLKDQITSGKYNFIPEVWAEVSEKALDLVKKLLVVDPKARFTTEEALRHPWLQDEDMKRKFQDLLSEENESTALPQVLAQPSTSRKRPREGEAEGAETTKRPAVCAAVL

SMILES | inhibition
O=C1NC[C@@]2(CCCNC2)c2[nH]c(-c3ccnc(-c4cccnc4)n3)cc21 | > 80%
O=C1NCC2(CCNCC2)c2[nH]c(-c3ccnc(-c4ccc5ccccc5c4)n3)cc21 | > 80%
O=C1NCC2(CCNCC2)c2[nH]c(-c3ccnc(-c4ccc(C(F)(F)F)cc4)n3)cc21 | > 80%
COCCCOc1ccc(-c2nccc(-c3cc4c([nH]3)[C@]3(CCCNC3)CNC4=O)n2)cn1 | > 80%

More lines, now with the values ahead:

inhibition | SMILES
> 80% | COc1cncc(-c2nccc(-c3cc4c([nH]3)C3(CCNCC3)CNC4=O)n2)c1
> 80% | CC(C)c1cccc(-c2nccc(-c3cc4c([nH]3)C3(CCNCC3)CNC4=O)n2)c1

Target: T1, MAP kinase-activated protein kinase 2 (Homo sapiens, UniProt P49137)
Assay: Inhibition of MK2 pretreated for 30 mins before fluorescein labeled substrate peptide addition measured after 2 hrs by IMAP assay

T1 sequence (P49137 whole entry): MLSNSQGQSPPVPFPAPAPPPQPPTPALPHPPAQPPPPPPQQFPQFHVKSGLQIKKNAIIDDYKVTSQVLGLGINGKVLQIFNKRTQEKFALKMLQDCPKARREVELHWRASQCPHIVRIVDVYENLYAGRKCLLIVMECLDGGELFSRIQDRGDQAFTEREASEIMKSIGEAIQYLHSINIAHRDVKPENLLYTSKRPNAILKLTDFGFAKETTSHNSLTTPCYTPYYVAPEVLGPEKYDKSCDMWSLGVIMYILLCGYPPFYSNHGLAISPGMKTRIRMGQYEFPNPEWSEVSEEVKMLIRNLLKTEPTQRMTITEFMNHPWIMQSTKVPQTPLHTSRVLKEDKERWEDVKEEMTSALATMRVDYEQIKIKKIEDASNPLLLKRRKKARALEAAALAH

SMILES | EC50
O=C1NC[C@@]2(CCCNC2)c2[nH]c(-c3ccnc(-c4cccnc4)n3)cc21 | 6.5 nM
O=C1NCC2(CCNCC2)c2[nH]c(-c3ccnc(-c4ccc5ccccc5c4)n3)cc21 | 5.1 nM
O=C1NCC2(CCNCC2)c2[nH]c(-c3ccnc(-c4ccc(C(F)(F)F)cc4)n3)cc21 | 6.9 nM
COCCCOc1ccc(-c2nccc(-c3cc4c([nH]3)[C@]3(CCCNC3)CNC4=O)n2)cn1 | 6.9 nM

Further lines, results first:

EC50 | SMILES
6.9 nM | COc1cncc(-c2nccc(-c3cc4c([nH]3)C3(CCNCC3)CNC4=O)n2)c1
112 nM | CC(C)c1cccc(-c2nccc(-c3cc4c([nH]3)C3(CCNCC3)CNC4=O)n2)c1

Target: T1, MAP kinase-activated protein kinase 2
Assay: Inhibition of MK2 in LPS-stimulated human THP1 cells assessed as inhibition of Hsp27 phosphorylation pretreated 60 mins before LPS challenge measured after 10 mins
Type: cell-based, THP-1

EC50 | SMILES
1200 nM | O=C1NC[C@@]2(CCCNC2)c2[nH]c(-c3ccnc(-c4cccnc4)n3)cc21
400 nM | COCCCOc1ccc(-c2nccc(-c3cc4c([nH]3)[C@]3(CCCNC3)CNC4=O)n2)cn1

Target: T2, Serine/threonine-protein kinase 17A (Homo sapiens) (UniProt Q9UEE5)
T2 sequence (whole entry): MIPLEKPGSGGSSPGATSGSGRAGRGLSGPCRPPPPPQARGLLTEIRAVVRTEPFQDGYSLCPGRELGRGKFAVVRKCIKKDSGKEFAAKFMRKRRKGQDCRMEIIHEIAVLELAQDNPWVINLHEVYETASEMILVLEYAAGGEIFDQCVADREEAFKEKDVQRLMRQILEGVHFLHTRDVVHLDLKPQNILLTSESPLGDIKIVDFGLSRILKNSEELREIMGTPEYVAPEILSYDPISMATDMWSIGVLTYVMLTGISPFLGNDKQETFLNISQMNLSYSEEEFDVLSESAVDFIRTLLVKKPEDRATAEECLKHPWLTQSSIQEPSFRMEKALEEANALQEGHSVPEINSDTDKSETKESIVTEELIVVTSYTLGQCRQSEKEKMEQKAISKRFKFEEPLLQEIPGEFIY
Assay: Inhibition of DRAK1 at 1 uM

SMILES | inhibition
O=C1NC[C@@]2(CCCNC2)c2[nH]c(-c3ccnc(-c4cccnc4)n3)cc21 | > 80%
O=C1NCC2(CCNCC2)c2[nH]c(-c3ccnc(-c4ccc5ccccc5c4)n3)cc21 | > 80%
O=C1NCC2(CCNCC2)c2[nH]c(-c3ccnc(-c4ccc(C(F)(F)F)cc4)n3)cc21 | > 80%
COCCCOc1ccc(-c2nccc(-c3cc4c([nH]3)[C@]3(CCCNC3)CNC4=O)n2)cn1 | > 80%

Second part, the compound after the results:

inhibition | SMILES
> 80% | COc1cncc(-c2nccc(-c3cc4c([nH]3)C3(CCNCC3)CNC4=O)n2)c1
> 80% | CC(C)c1cccc(-c2nccc(-c3cc4c([nH]3)C3(CCNCC3)CNC4=O)n2)c1

System: THP-1
Assay: Antiinflammatory activity in human THP1 cells assessed as inhibition of LPS-induced TNFalpha production pretreated 30 mins before LPS challenge measured after 4 hrs
Type: functional, cell-based

SMILES | EC50
O=C1NC[C@@]2(CCCNC2)c2[nH]c(-c3ccnc(-c4cccnc4)n3)cc21 | 1600 nM
O=C1NCC2(CCNCC2)c2[nH]c(-c3ccnc(-c4ccc5ccccc5c4)n3)cc21 | 3600 nM
O=C1NCC2(CCNCC2)c2[nH]c(-c3ccnc(-c4ccc(C(F)(F)F)cc4)n3)cc21 | 6300 nM
COCCCOc1ccc(-c2nccc(-c3cc4c([nH]3)[C@]3(CCCNC3)CNC4=O)n2)cn1 | 980 nM

Other lines, results leading:

EC50 | SMILES
> 10000 nM | COc1cncc(-c2nccc(-c3cc4c([nH]3)C3(CCNCC3)CNC4=O)n2)c1
> 10000 nM | CC(C)c1cccc(-c2nccc(-c3cc4c([nH]3)C3(CCNCC3)CNC4=O)n2)c1

Target: Serine/threonine-protein kinase pim-1 (Homo sapiens) (UniProt P11309)
Assay: Inhibition of PIM1 at 1 uM

Chain of Serine/threonine-protein kinase pim-1 (Homo sapiens) (P11309 whole entry, looked up): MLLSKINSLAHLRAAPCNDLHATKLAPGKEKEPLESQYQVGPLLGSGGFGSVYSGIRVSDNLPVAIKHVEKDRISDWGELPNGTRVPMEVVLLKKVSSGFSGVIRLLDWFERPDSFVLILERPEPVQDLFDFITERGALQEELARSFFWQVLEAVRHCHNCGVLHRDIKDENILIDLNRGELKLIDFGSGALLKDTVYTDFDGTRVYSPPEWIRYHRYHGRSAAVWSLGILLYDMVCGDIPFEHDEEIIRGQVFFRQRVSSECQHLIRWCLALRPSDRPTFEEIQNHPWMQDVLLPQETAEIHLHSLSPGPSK

SMILES | inhibition
O=C1NC[C@@]2(CCCNC2)c2[nH]c(-c3ccnc(-c4cccnc4)n3)cc21 | > 80%
O=C1NCC2(CCNCC2)c2[nH]c(-c3ccnc(-c4ccc5ccccc5c4)n3)cc21 | > 80%
O=C1NCC2(CCNCC2)c2[nH]c(-c3ccnc(-c4ccc(C(F)(F)F)cc4)n3)cc21 | > 80%
COCCCOc1ccc(-c2nccc(-c3cc4c([nH]3)[C@]3(CCCNC3)CNC4=O)n2)cn1 | > 80%

The next lines start with the values.

inhibition | SMILES
> 80% | COc1cncc(-c2nccc(-c3cc4c([nH]3)C3(CCNCC3)CNC4=O)n2)c1
> 80% | CC(C)c1cccc(-c2nccc(-c3cc4c([nH]3)C3(CCNCC3)CNC4=O)n2)c1

Target: Mitogen-activated protein kinase 3 (Homo sapiens) (UniProt P27361)
Assay: Inhibition of ERK1 at 1 uM

Chain of Mitogen-activated protein kinase 3 (Homo sapiens) (P27361 whole entry): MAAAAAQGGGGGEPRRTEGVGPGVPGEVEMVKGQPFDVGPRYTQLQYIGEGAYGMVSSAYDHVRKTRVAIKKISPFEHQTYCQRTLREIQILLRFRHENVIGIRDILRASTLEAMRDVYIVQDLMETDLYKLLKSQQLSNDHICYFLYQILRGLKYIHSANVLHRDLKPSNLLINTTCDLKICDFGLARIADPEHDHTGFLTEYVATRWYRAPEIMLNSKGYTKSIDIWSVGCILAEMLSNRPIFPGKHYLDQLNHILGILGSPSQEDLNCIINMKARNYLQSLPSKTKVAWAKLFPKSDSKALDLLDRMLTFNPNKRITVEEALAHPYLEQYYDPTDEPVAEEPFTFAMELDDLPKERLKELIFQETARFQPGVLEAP

SMILES | inhibition
O=C1NC[C@@]2(CCCNC2)c2[nH]c(-c3ccnc(-c4cccnc4)n3)cc21 | > 80%
O=C1NCC2(CCNCC2)c2[nH]c(-c3ccnc(-c4ccc5ccccc5c4)n3)cc21 | > 80%
O=C1NCC2(CCNCC2)c2[nH]c(-c3ccnc(-c4ccc(C(F)(F)F)cc4)n3)cc21 | > 80%
COCCCOc1ccc(-c2nccc(-c3cc4c([nH]3)[C@]3(CCCNC3)CNC4=O)n2)cn1 | > 80%

Next, values leading:

inhibition | SMILES
> 80% | COc1cncc(-c2nccc(-c3cc4c([nH]3)C3(CCNCC3)CNC4=O)n2)c1
> 80% | CC(C)c1cccc(-c2nccc(-c3cc4c([nH]3)C3(CCNCC3)CNC4=O)n2)c1

System: PBMC
Assay: Antiinflammatory activity in human PBMC cells assessed as inhibition of LPS-induced TNFalpha production pretreated 30 mins before LPS challenge measured after 4 hrs by ELISA
Type: functional, cell-based

SMILES | EC50
O=C1NC[C@@]2(CCCNC2)c2[nH]c(-c3ccnc(-c4cccnc4)n3)cc21 | 930 nM
COCCCOc1ccc(-c2nccc(-c3cc4c([nH]3)[C@]3(CCCNC3)CNC4=O)n2)cn1 | 430 nM

Target: Serine/threonine-protein kinase pim-3 (Homo sapiens) (UniProt Q86V86)
Assay: Inhibition of PIM3 at 1 uM

SMILES | inhibition
O=C1NC[C@@]2(CCCNC2)c2[nH]c(-c3ccnc(-c4cccnc4)n3)cc21 | > 80%
O=C1NCC2(CCNCC2)c2[nH]c(-c3ccnc(-c4ccc5ccccc5c4)n3)cc21 | > 80%
O=C1NCC2(CCNCC2)c2[nH]c(-c3ccnc(-c4ccc(C(F)(F)F)cc4)n3)cc21 | > 80%
COCCCOc1ccc(-c2nccc(-c3cc4c([nH]3)[C@]3(CCCNC3)CNC4=O)n2)cn1 | > 80%

Second part, the compound after the results:

inhibition | SMILES
> 80% | COc1cncc(-c2nccc(-c3cc4c([nH]3)C3(CCNCC3)CNC4=O)n2)c1
> 80% | CC(C)c1cccc(-c2nccc(-c3cc4c([nH]3)C3(CCNCC3)CNC4=O)n2)c1

System: not listed separately
Assay: Inhibition of p38

SMILES | inhibition
O=C1NC[C@@]2(CCCNC2)c2[nH]c(-c3ccnc(-c4cccnc4)n3)cc21 | inactive
O=C1NCC2(CCNCC2)c2[nH]c(-c3ccnc(-c4ccc5ccccc5c4)n3)cc21 | inactive
O=C1NCC2(CCNCC2)c2[nH]c(-c3ccnc(-c4ccc(C(F)(F)F)cc4)n3)cc21 | inactive
COCCCOc1ccc(-c2nccc(-c3cc4c([nH]3)[C@]3(CCCNC3)CNC4=O)n2)cn1 | inactive

Now from value to compound:

inhibition | SMILES
inactive | COc1cncc(-c2nccc(-c3cc4c([nH]3)C3(CCNCC3)CNC4=O)n2)c1
inactive | CC(C)c1cccc(-c2nccc(-c3cc4c([nH]3)C3(CCNCC3)CNC4=O)n2)c1
